{"source": "patent US10314847B2", "about": "“Scalarane sesterterpenoid, pharmaceutical composition and topoisomerase II and Hsp90 inhibitor for treating cancer, and use and preparation method thereof” (NATIONAL DONG HWA UNIVERSITY, priority 2017, dated 2019)", "key": {"γH2AX": {"test_system": "γH2AX", "experiment": "Western blot of γH2AX expression in Molt 4 cells", "format": "cell-based, human", "conditions": "Molt 4 cells, 0.0625, 0.125 and 0.25 μg/mL, 24 hours", "method": "Protein expression was analyzed with Western blotting. GAPDH was used as the loading control.\nIn order to confirm whether the DNA damage-induced by the marine terpenoids of the present invention involved the inhibition of Topo II activity, a cell-free DNA cleavage assay using an enzyme-mediated negatively supercoiled pHOT1 plasmid DNA was applied. […] These marine terpenoids suppressed Topo II activity, resulting in the inhibition of supercoiled DNA relaxation in a dose-dependent manner (FIG. 2(A)). […] To determine whether the apoptotic mechanism of compounds 1 to 3 affects γH2AX (as a biomarker of DNA damage) induction, Western blot analysis was employed to examine the activation of γH2AX."}, "human topoisomerase II": {"target": "T1, human topoisomerase II (Homo sapiens, UniProt P11388)", "T1 construct": "purchased Topogen", "T1 sequence (P11388 whole entry)": "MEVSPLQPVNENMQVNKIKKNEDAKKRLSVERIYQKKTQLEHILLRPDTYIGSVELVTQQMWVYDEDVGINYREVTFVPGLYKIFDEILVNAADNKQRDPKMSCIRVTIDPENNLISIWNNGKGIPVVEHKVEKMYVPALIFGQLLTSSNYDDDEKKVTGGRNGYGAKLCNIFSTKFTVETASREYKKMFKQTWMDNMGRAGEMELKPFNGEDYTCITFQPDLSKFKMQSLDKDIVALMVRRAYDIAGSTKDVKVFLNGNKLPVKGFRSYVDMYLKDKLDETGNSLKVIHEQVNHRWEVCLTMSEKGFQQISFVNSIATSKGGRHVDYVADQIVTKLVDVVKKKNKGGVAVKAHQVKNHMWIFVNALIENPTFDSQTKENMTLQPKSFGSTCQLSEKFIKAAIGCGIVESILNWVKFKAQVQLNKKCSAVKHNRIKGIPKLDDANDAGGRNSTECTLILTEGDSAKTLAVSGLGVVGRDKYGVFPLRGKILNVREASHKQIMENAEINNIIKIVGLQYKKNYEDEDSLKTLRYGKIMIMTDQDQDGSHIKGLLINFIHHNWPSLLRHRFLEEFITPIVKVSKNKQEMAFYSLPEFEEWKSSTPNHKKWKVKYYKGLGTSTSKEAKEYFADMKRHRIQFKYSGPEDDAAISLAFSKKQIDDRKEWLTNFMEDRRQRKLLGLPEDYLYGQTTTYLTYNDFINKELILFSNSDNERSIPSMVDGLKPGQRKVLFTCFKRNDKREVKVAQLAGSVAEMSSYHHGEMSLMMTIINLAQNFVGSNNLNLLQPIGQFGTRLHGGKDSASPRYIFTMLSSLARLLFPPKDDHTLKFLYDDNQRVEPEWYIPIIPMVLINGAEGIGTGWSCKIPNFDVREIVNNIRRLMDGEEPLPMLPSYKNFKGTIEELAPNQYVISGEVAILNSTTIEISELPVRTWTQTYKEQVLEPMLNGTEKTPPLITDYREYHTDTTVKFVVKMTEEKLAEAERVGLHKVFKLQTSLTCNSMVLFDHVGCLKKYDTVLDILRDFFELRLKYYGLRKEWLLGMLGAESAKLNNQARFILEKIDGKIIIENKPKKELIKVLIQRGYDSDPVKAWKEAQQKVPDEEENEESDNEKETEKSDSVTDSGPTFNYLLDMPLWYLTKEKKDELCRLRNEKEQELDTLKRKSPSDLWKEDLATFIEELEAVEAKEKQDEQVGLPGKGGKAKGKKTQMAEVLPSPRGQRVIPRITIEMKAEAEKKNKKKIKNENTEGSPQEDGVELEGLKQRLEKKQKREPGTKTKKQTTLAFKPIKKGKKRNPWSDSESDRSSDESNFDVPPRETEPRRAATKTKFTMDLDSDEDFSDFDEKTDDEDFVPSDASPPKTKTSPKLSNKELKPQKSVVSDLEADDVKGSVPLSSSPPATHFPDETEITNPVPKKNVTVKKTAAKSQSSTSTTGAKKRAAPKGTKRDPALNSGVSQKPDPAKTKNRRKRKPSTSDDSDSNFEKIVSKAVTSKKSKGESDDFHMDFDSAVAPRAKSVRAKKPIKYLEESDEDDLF", "experiment": "Assay of topoisomerase II catalytic inhibitors and poisons (cell-free pHOT1 DNA relaxation/cleavage)", "format": "biochemical", "method": "Assay of Topoisomerase II Catalytic Inhibitors and Poisons:\nReactions were terminated by adding 2 μL of 10% SDS to facilitate trapping the enzyme in a cleavage complex, followed by the addition of 2.5 μL of proteinase K (50 μg/mL) to digest the bound protein (incubated at 37° C. for 15 minutes) and finally by adding 0.1 volume of the sample loading dye. The DNA products were analyzed via electrophoresis through vertical 2% agarose gels at 2 voltage/cm in 0.5×TAE buffer. Gels were stained with ethidium bromide (EtBr) and photographed using an Eagle Eye II system (Stratagene, La Jolla, Calif., U.S.A.). The quantitative analysis of the DNA Topo II activity was performed."}, "Molt 4": {"test_system": "Molt 4", "text": "The cell lines were obtained from the American Type Culture Collection (ATCC, Manassas, Va., U.S.A.) or the Japanese Collection of Research Biosources (JCRB) Cell Bank (Japan). […] Antibodies against XIAP, NFκB (p65), GADD, CDK 4, HSF 1, ATF 6 and β-tubulin were obtained from Santa Cruz Biotechnology (Santa Cruz, Calif., U.S.A.). The Hybond ECL transfer membrane and ECL Western blotting detection kits were obtained from Amersham Life Sciences (Amersham, U.K.).\nSeveral cancer cell lines including leukemia K562, Molt 4, and HL 60 cells, prostate cancer LNCaP cells, colon cancer DLD-1 cells and breast cancer T-47D cells were used to evaluate the antiproliferative activity (referring to Table 2).\nIt is known that mitochondria are critical intracellular loci of ROS production and ROS exposure can lead to the […] opening. The antioxidant, microsomal GST1, in the inner mitochondrial membrane can interact with the mitochondrial permeability transition (MPT) regulator proteins, such as ANT and/or CypD, to form a MPT pore contributing to mitochondria-mediated cell death. In addition, mitochondrial homeostasis of tumor cells is regulated by an organelle-specific Hsp90 chaperone network."}, "Molt 4 cells [1]": {"test_system": "Molt 4 cells", "experiment": "JC-1 staining, mitochondrial membrane potential disruption", "format": "cell-based, human", "conditions": "Molt 4 cells, 0.0625, 0.125 and 0.25 μg/mL, 24 hours, dose-dependent", "method": "Determination of Reactive Oxygen Species (ROS) Generation, Calcium Accumulation, and Matrix Metalloproteinase (MMP) Disruption:\nMMP disruption, calcium accumulation and ROS generation were detected with the JC-1 cationic dye (5 μg/mL), the fluorescent calcium indicator (Fluo 3, […]) and the carboxy derivative of fluorescein (carboxy-H2DCFDA, […]), respectively. In brief, the treated cells were labeled with a specific fluorescent dye for 30 minutes. After labeling, cells were washed with PBS and resuspended in PBS at a concentration of 1×10^6 cells/mL before analysis via flow cytometry."}, "Molt 4 cells [2]": {"test_system": "Molt 4 cells", "experiment": "Annexin V/PI apoptosis assay", "format": "cell-based, human", "conditions": "Molt 4 cells, 0.0625, 0.125 and 0.25 μg/mL, 24 hours, dose-dependent", "method": "Annexin V/Propidium Iodide (PI) Apoptosis Assay:\nThe externalization of phosphatidylserine (PS) and membrane integrity were quantified using an annexin V-fluorescein isothiocyanate (annexin V-FITC) staining kit. In brief, 10^6 cells were grown in 35 mm diameter plates and were labeled with annexin V-FITC (10 μg/mL) and PI (20 μg/mL) prior to harvesting. After labeling, all plates were washed with a binding buffer and harvested. Cells were resuspended in the binding buffer at a concentration of 2×10^5 cells/mL before analysis by flow cytometer FACS-Calibur (Becton-Dickinson, San Jose, Calif., U.S.A.) and CellQuest software. Approximately 10,000 cells were counted for each determination."}, "[3]": {"test_system": "human Molt 4 tumor xenograft", "experiment": "Human leukemia Molt 4 cells xenograft animal model", "format": "in vivo, mice", "conditions": "1.14 μg/g intraperitoneal, 33 days", "method": "FIG. 3(A) is a diagram showing the effect of compound 3 on the tumor growth in an in vivo human Molt 4 tumor xenograft animal model. Tumor-bearing nude mice were intraperitoneally injected with solvent control (DMSO) and compound 3 (1.14 μg/g) for 33 days. […] Control, n=8; compound 3, n=7.\nFIG. 3(B) is a diagram showing the effect of compound 3 on the body weight in the in vivo human Molt 4 tumor xenograft animal model. Tumor-bearing nude mice were intraperitoneally injected with solvent control (DMSO) and compound 3 (1.14 μg/g) for 33 days. The body weight were measured every other day, and the results are expressed as mean±SD. Control, n=8; compound 3, n=7.\nHuman Leukemia Molt 4 Cells Xenograft Animal Model:\nSix-week-old male immunodeficient athymic mice were purchased from the National Laboratory Animal and Research Center (Taipei, Taiwan). All of the animals were maintained under standard laboratory conditions (temperature 24-26° C., 12-12 hour dark-light circle) and fed with a laboratory diet and water. Molt 4 cells (1×10^6) resuspended in 0.2 mL PBS were injected subcutaneously (s.c.) into the right flank of each mouse, and tumor growth was monitored every day. […] Tumor size was measured three times a week using calipers and tumor volumes were calculated according to the standard formula: width^2×length/2."}}, "data": [{"smiles": "CC[C@@H](O)CC(=O)O[C@@H]1C[C@@H]2[C@@]3(C)CCC[C@](C)(CC)[C@@H]3CC[C@@]2(C)[C@@H]2CC=C(C(C)=O)[C@H](C=O)[C@@]12C", "note": "(relative stereo) [Compound 2, 12β-(3′β-hydroxypentanoyloxy)-20,24-dimethyl-24-oxo-scalara-16-en-25-al]", "values": [{"measurement": "Expression of γH2AX (DNA damage biomarker)", "setting": "γH2AX", "result": "significantly enhanced the expression of γH2AX in a dose-dependent manner"}, {"measurement": "IC50", "setting": "human topoisomerase II; cell-free system, read-out: Topo II activity IC50 (converted)", "result": 719, "unit": "nM"}, {"measurement": "Cytotoxic effect IC50, Molt 4", "setting": "Molt 4", "result": 0.30, "unit": "µg/mL"}, {"measurement": "Mitochondrial membrane potential (JC-1)", "setting": "Molt 4 cells [1]", "result": "disruption in mitochondrial membrane potential"}, {"measurement": "Apoptotic population (annexin-V/PI)", "setting": "Molt 4 cells [2]", "result": "increase in the apoptotic population"}]}, {"smiles": "CC(C)=CCC/C(C)=C/CC/C(C)=C/CC/C(C)=C/CC1=CC(=O)C=CC1=O", "note": "[Compound 3, 2-tetraprenil-1,4-benzochinone]", "values": [{"measurement": "Expression of γH2AX (DNA damage biomarker)", "setting": "γH2AX", "result": "activation of DNA damage was not observed"}, {"measurement": "inhibition at 0.08 µg/mL", "setting": "human topoisomerase II; 0.08 μg/mL", "result": 7, "unit": "%"}, {"measurement": "inhibition at 0.312 µg/mL", "setting": "human topoisomerase II; 0.312 μg/mL", "result": 13, "unit": "%"}, {"measurement": "inhibition at 1.25 µg/mL", "setting": "human topoisomerase II; 1.25 μg/mL", "result": 28, "unit": "%"}, {"measurement": "inhibition at 5 µg/mL", "setting": "human topoisomerase II; 5 μg/mL", "result": 90, "unit": "%"}, {"measurement": "inhibition at 20 µg/mL", "setting": "human topoisomerase II; 20 μg/mL", "result": 98, "unit": "%"}, {"measurement": "Topo II activity IC50", "setting": "human topoisomerase II; cell-free system", "result": 0.43, "unit": "µg/mL"}, {"measurement": "Mice body weights versus control", "setting": "[3]", "result": "no significant difference"}, {"measurement": "Cytotoxic effect IC50, Molt 4", "setting": "Molt 4", "result": 0.34, "unit": "µg/mL"}, {"measurement": "Mitochondrial membrane potential (JC-1)", "setting": "Molt 4 cells [1]", "result": "disruption in mitochondrial membrane potential"}, {"measurement": "Apoptotic population (annexin-V/PI)", "setting": "Molt 4 cells [2]", "result": "increase in the apoptotic population"}]}]}
